Results on ten molecules are retold here after patent US8586538B2, “Method of treating a patient suffering from a bleeding disorder comprising administering an antibody against the A3-C1 of FVIII” (Stichting Sanquin Bloedvoorziening, priority 2002, dated 2013).

The target of data set [1] is T1, interaction between FVIII light chain and LRP cluster II (Homo sapiens, UniProt Q07954).
T1 construct: Recombinant LRP clusters II or IV (1 pmol/well) were adsorbed onto microtiter wells; made in house; host or cells: LRP cluster II: BHK cells; FVIII light chain: plasma-derived
T1 sequence (Q07954 803-1182): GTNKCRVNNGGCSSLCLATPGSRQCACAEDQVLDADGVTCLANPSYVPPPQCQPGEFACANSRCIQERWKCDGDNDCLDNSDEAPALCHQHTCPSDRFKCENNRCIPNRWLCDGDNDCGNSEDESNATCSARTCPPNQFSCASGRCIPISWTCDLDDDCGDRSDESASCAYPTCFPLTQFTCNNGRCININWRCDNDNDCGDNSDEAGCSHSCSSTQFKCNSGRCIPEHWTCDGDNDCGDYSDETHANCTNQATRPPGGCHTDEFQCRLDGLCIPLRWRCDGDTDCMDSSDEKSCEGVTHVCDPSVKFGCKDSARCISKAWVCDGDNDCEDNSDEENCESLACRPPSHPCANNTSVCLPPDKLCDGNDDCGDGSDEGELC
In words: Solid-phase competition: FVIII light chain binding to immobilized LRP cluster II. The conditions noted are these: FVIII light chain 25 nM; peptide 0-1 mM; 2 h at 37° C. The procedure:
(§1) FIG. 4. Effect of scFv antibody fragments on the interaction between FVIII light chain and LRP. A, FVIII light chain (LCh) (25 nM) was incubated with immobilized LRP cluster II (1 pmol/well) in a volume of 50 μl in 150 mM NaCl, 5 mM CaCl2, 1% (w/v) HSA, 0.1% Tween® 20, and 50 mM Tris (pH 7.4) in the presence of various concentrations (0-100 nM) of scFv KM41 (closed circles) or scFv KM36 (open circles) for 2 h at 37° C. After washing with the same buffer, bound FVIII light chain was quantified by incubation with peroxidase-conjugated anti-FVIII antibody CLB-CAg 12 for 15 min at 37° C. Residual binding is expressed as the percentage of binding in the absence of competitor and is corrected for nonspecific binding (less than 5% relative to binding to LRP cluster II-immobilized wells). Data represent the mean±S.D. of three experiments. B, FVIII light chain (50 nM) was incubated with immobilized LRP (16 fmol/mm^2) as described in the legend of FIG. 1. Binding was assessed in the absence (curve 1) or in the presence of increasing concentrations of scFv KM41 (20, 60, 300, 500 nM, curves 2-5, respectively). Complexes were allowed to form for 30 min before SPR analysis.
(§2) FIG. 5. Effect of scFv KM33 on the interaction between FVIII light chain and LRP. FVIII light chain (LCh) (25 nM) was incubated with immobilized LRP cluster II (1 pmol/well) in a volume of 50 μl in 150 mM NaCl, 5 mM CaCl2, 1% (w/v) HSA, 0.1% Tween® 20, and 50 mM Tris (pH 7.4) in the presence of various concentrations (0-30 nM) of scFv KM36 (open circles) or scFv KM33 (closed circles) for 2 h at 37° C. After washing with the same buffer, bound FVIII Light chain was quantified by incubation with peroxidase-conjugated anti-FVIII antibody CLB-CAg 12 for 15 min at 37° C. Residual binding is expressed as the percentage of binding in the absence of competitor and is corrected for nonspecific binding (less than 5% relative to binding to cluster-coated wells). Data represent the mean±S.D. of three experiments.
(§3) Recombinant LRP clusters II or IV (1 pmol/well) were adsorbed onto microtiter wells in 50 mM NaHCO3 (pH 9.8) in a volume of 50 μl for 16 h at 4° C. Wells were blocked with 2% (w/v) HSA, 150 mM NaCl, 5 mM CaCl2, and 50 mM Tris (pH 7.4) in a volume of 200 μl for 1 h at 37° C. After three rapid washes (less than 5 seconds each) with 150 mM NaCl, 5 mM CaCl2, 0.1% (v/v) Tween® 20, and 50 mM Tris (pH 7.4), FVIII light chain or its derivatives were incubated at various concentrations in a volume of 50 μl in a buffer containing 150 mM NaCl, 5 mM CaCl2, 1% (w/v) HSA, 0.1% (v/v) Tween® 20, and 50 mM Tris (pH 7.4) for 2 h. at 37° C. Bound ligand was detected by incubating with peroxidase-conjugated monoclonal antibody CLB-CAg 12 in the same buffer for 15 min at 37° C. […] In competition experiments, FVIII light chain (25 nM) was incubated with wells containing immobilized LRP clusters, either in the presence or absence of serial dilutions of competitor in a volume of 50 μl for 2 h at 37° C. Residual FVIII binding was detected as described above. Data were corrected for binding to empty microtiter wells, which was less than 5% relative to binding to wells containing immobilized LRP clusters.
(§4) (Note to Table II: Effect of FVIII a3-A3-C1 fragment derived synthetic peptides on the interaction between FVIII light chain and LRP cluster II. FVIII light chain (25 nM) was incubated with immobilized LRP cluster II (1 pmol/well) in a volume of 50 μl in 150 mM NaCl, 5 mM CaCl2, 1% (w/v) HSA, 0.1% Tween® 20, and 50 mM Tris (pH 7.4) in the presence or absence of various concentrations of synthetic peptide (0-1 mM) for 2 h at 37° C. After washing with the same buffer, bound FVIII light chain was quantified by incubation with peroxidase-conjugated anti-FVIII antibody CLB-CAg 12 for 15 min at 37° C. Half-maximum inhibition constants (IC50) represent the mean values±S.D. of three experiments.)

The target in a further data set is FVIIIa-FIXa complex (Homo sapiens, UniProt P00451+P00740). The following applies: by interfering with the assembly of the FVIIIa-FIXa complex; cited from earlier work.
FVIIIa-FIXa complex, sequence (P00740 47-191 limits assumed, one chain of several): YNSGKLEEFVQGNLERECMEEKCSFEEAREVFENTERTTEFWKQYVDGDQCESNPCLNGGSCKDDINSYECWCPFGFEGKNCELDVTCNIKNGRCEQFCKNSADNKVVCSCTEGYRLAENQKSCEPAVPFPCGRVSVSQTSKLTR
The target of data set [2] is T2, interaction between FVIII light chain and LRP cluster IV (Homo sapiens, UniProt P00451).
T2 construct: made in house; host or cells: LRP cluster IV: BHK cells; FVIII light chain: plasma-derived
T2 sequence (P00451 1668-2351 limits assumed): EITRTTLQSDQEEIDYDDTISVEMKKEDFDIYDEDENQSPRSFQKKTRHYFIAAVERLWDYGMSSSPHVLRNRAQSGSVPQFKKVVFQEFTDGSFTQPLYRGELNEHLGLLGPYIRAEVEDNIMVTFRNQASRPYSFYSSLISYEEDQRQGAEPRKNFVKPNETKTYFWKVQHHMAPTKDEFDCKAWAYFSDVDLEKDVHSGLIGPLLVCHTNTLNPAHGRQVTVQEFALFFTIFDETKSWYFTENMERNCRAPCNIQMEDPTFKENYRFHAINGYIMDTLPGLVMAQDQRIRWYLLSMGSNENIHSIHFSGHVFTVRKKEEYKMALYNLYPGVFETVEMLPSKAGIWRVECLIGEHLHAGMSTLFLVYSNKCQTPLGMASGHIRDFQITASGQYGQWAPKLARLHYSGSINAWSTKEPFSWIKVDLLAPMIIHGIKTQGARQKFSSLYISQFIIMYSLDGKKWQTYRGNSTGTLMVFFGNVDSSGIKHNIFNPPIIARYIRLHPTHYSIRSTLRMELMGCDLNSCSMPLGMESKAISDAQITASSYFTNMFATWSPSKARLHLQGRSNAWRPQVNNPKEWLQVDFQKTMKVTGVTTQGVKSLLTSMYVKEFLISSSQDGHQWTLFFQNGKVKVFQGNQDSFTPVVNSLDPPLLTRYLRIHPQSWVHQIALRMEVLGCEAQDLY
In words: Solid-phase competition: FVIII light chain binding to immobilized LRP cluster IV. The conditions noted are these: FVIII light chain 25 nM; competitor 0-600 nM. The procedure:
FIG. 2. Binding of FVIII light chain to recombinant LRP fragments. FVIII light chain (LCh) (25 nM) was incubated with immobilized LRP cluster IV (1 pmol/well) in a volume of 50 μl in 150 mM NaCl, 5 mM CaCl2, 1% (w/v) HSA, 0.1% Tween® 20, and 50 mM Tris (pH 7.4) in the presence or absence of various concentrations of recombinant LRP cluster II (0-600 nM) for 2 h at 37° C. After washing with the same buffer, bound FVIII light chain was quantified by incubation with peroxidase-conjugated anti-FVIII antibody CLB-CAg 12 for 15 min at 37° C. Residual binding is expressed as the percentage of binding in the absence of competitor and is corrected for nonspecific binding (less than 5% relative to binding to LRP cluster II-immobilized wells). Inset, serial dilutions of FVIII light chain were incubated with immobilized LRP cluster II (1 pmol/well) in a volume of 50 μl in 150 mM NaCl, 5 mM CaCl2, 1% (w/v) HSA, 0.1% Tween® 20, and 50 mM Tris (pH 7.4) for 2 h at 37° C. After washing with the same buffer, bound FVIII light chain was quantfied as described above. […]
Recombinant LRP clusters II or IV (1 pmol/well) were adsorbed onto microtiter wells in 50 mM NaHCO3 (pH 9.8) in a volume of 50 μl for 16 h at 4° C. […] Bound ligand was detected by incubating with peroxidase-conjugated monoclonal antibody CLB-CAg 12 in the same buffer for 15 min at 37° C. […] Residual FVIII binding was detected as described above. […]

The nature of data set [3]: Factor VIII clearance and recovery in vWF knock out mice. It is filed as in vivo. The conditions noted are these: for Factor VIII activity in plasma: Factor VIII 200 U/kg. The procedure:
FIG. 8. According to Example II, mice were injected either with human FVIII alone, human FVIII in the presence of a control scFv-fragment (KM38) and with human FVIII in the presence of a scFv-fragment (KM33) specifically interfering with the putative FVIII-LRP interaction.
Experimental procedure: vWF knock out mice (decreased endogenous Factor VIII, 20% Factor VIII compared to healthy animals) were treated with human recombinant Factor VIII (Recombinate™; 200 U/kg) and recombinant scFv (KM33) in excess. (30 nM versus 3 nM Factor VIII in plasma). In control experiments, Factor VIII and a control scFv fragment (KM38) binding to a different domain as the proposed LRP binding
site on the Factor VIII molecule were used in the same concentrations. Infusion of recombinant FVIII without any addition was used to monitor the clearance of Factor VIII in this model system.
At defined time points (15, 30, 60, 120 and 240 minutes) after injection, blood was collected by heart puncture, plasma was subsequently isolated, shock frozen and analyzed for Factor VIII activity. Ten mice were used at each time point, plasma was diluted to 3 concentrations (1:20, 1:60 and 1:100) and analyzed in duplicate. Factor VIII levels were quantified by performing a quantitative ELISA.

Data set [4] deals with T3, interaction between FVIII light chain and LRP cluster II (Homo sapiens, UniProt P00451).
T3 construct: Recombinant LRP clusters II or IV (1 pmol/well) were adsorbed onto microtiter wells; made in house; host or cells: LRP cluster II: BHK cells; FVIII light chain: plasma-derived
T3 sequence (P00451 1668-2351): T2 sequence (P00451 1668-2351 limits assumed)
In words: Solid-phase competition: FVIII light chain binding to immobilized LRP cluster II. The following applies: FVIII light chain 25 nM. The procedure:
as §1, §2, §3, §4

Several values for one entry are separate records, joined by “and”; a condition that tells them apart may be missing. Identical values can stand only once. No end group written: not given here.

For EDPTFKENYRFH [Residues 1908-1919], in data set [1], the IC50 was over 1000 µM.

Turning to TENMERNCRA [Residues 1892-1901], the IC50 in data set [1] is over 1000 µM.

As to KNFVKPNETKTYFWK [Residues 1804-1818], the “Inhibition of FVIII procoagulant activity” value at FVIIIa-FIXa complex was “effective inhibitors”. Besides, the IC50 in data set [1] was ~1.9 µM and 1.9 µM.

In turn, WDYGMSSSPHVLRNR [Residues 1707-1721] returned an IC50 in data set [1] of over 1000 µM.

“YFWKVQHHMAPTKDEFDCKA [Residues 1815-1834]”: the “Inhibition of FVIII procoagulant activity” value on FVIIIa-FIXa complex is on record as “effective inhibitors”. Moreover, in data set [1], the IC50 is ~16.8 µM and 16.8 µM.

HMAPTKDEFDCKA [Residues 1822-1834] registered a half-maximal inhibitory concentration (IC50) in data set [1] of over 1000 µM.

TVRKKEEYK [Residues 1964-1972] showed an IC50 in data set [1] of over 1000 µM.

With “LRP cluster II: recombinant LRP ligand binding cluster II expressed in BHK cells”, the “Inhibition of FVIII light chain binding to immobilized LRP cluster IV” value in data set [2] is “dose-dependent inhibition”.

Turning to KLARLHYSG [Residues 2049-2057], the IC50 in data set [1] is over 1000 µM.

B1: scFv KM33: scFv antibody fragment against FVIII light chain; does not require A3 domain region 1778-1818; LRP blocking (protein)
scFv: EVQLVESGGGVVQPGRSLRLSCVDSGLTFSSYGMHWVRQAPGAGLEWVAVISYDGNDKYYADSVKGRFAISRDNAKNTLYLQMNSLTIEDTAVYYCAKDLIESNIAEAFWGQGTLVTVSSGGGGSGGGGSGGGGSDIQMTQSPSSLSASVGDTVTIACRASRDIRNDLAWYQQKPGKAPKLLIYATSRLQSGVPSRFSGSGSFTDFTLTINSLQPDDSATYYCLQDSDYPLTFGGGTKVDIKRAAAEQKLISEEDLNGAAHHHHHH
B1: the “Inhibition of FVIII procoagulant activity” value with FVIIIa-FIXa complex is “effective inhibitors”. The results for the “Factor VIII recovery” value in data set [3] (15 minutes after injection), in data set [3] (30 minutes after injection) and in data set [3] (60 minutes after injection) were 30.4%, 20% and 14%, respectively. The results for the “Factor VIII activity in plasma” value in data set [3] (15 minutes after injection), in data set [3] (30 minutes after injection) and in data set [3] (60 minutes after injection) were “about 0.8 U/mL”, 0.5 U/mL and 0.35 U/mL, respectively. Also, in data set [3] (four hours after injection), the FVIII activity levels result is on record as “reached the background activity of mouse Factor VIII”. Moreover, the “Effect on binding of FVIII light chain to immobilized LRP cluster II” value in data set [4] was “effectively inhibited”.

The IC50 is the concentration that inhibits the measured activity by half. Read a high IC50 as weaker potency.
